The source made the active and inactive calls. The calls are words filed in the database; no cut-off is given here.
Target: 3',5'-cyclic-AMP phosphodiesterase 4D (Homo sapiens, UniProt Q08499)
Assay: Inhibition of human PDE4D2 (86 to 413 residues) expressed in Escherichia coli BL21 codon-plus cells using [3H]cAMP as substrate incubated for 15 mins by liquid scintillation counting method
Settings: not given

3',5'-cyclic-AMP phosphodiesterase 4D, sequence (Q08499 whole entry, the tested form may be a part): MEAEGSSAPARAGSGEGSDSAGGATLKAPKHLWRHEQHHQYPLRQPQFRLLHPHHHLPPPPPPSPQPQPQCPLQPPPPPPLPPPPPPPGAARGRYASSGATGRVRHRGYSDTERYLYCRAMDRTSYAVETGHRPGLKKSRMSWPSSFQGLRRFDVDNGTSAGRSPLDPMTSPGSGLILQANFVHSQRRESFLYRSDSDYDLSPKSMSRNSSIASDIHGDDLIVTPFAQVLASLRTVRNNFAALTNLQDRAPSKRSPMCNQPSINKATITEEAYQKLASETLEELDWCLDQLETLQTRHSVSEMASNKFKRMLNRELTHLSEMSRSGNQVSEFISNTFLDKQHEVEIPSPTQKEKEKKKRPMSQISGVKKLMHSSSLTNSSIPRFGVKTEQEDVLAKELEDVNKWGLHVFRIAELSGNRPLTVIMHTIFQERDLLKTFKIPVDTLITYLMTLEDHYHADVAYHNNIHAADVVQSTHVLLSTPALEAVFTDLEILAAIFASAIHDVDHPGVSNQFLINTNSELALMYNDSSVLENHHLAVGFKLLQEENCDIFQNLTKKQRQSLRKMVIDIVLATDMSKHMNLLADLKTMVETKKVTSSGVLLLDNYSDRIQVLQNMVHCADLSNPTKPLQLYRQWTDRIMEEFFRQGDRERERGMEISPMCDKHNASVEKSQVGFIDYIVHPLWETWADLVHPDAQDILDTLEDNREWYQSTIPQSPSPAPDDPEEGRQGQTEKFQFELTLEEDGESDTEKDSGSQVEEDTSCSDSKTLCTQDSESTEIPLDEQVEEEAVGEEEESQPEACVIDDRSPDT

IC50 [nM]	SMILES
> 10000	CCOC(=O)CCCCCCCOc1cc2oc3cc4c(c(O)c3c(=O)c2c(CC=C(C)C)c1OC)C=CC(C)(C)O4
> 10000	COc1c(OCCCCCCCBr)cc2oc3cc4c(c(O)c3c(=O)c2c1CC=C(C)C)C=CC(C)(C)O4
148	COc1c(OCCCCCCCN2CCCC2)cc2oc3cc4c(c(O)c3c(=O)c2c1CC=C(C)C)C=CC(C)(C)O4
> 10000	COc1c(OCCCBr)cc2oc3cc4c(c(O)c3c(=O)c2c1CC=C(C)C)C=CC(C)(C)O4
> 10000	CCOC(=O)CCCCOc1cc2oc3cc4c(c(O)c3c(=O)c2c(CC=C(C)C)c1OC)C=CC(C)(C)O4
> 10000	CCOC(=O)CCCCCOc1cc2oc3cc4c(c(O)c3c(=O)c2c(CC=C(C)C)c1OC)C=CC(C)(C)O4
> 10000	COc1c(OCCCCCBr)cc2oc3cc4c(c(O)c3c(=O)c2c1CC=C(C)C)C=CC(C)(C)O4
99	COc1c(OCCCCC(=O)O)cc2oc3cc4c(c(O)c3c(=O)c2c1CC=C(C)C)C=CC(C)(C)O4
> 10000	CCOC(=O)CCCOc1cc2oc3cc4c(c(O)c3c(=O)c2c(CC=C(C)C)c1OC)C=CC(C)(C)O4
1310	COc1c(O)cc2oc3cc(O)c(CC=C(C)C)c(O)c3c(=O)c2c1CC=C(C)C [MANGOSTIN]
16	COc1c(OCCCCCCCC(=O)O)cc2oc3cc4c(c(O)c3c(=O)c2c1CC=C(C)C)C=CC(C)(C)O4
> 10000	CCOC(=O)CCCCCCCCOc1cc2oc3cc4c(c(O)c3c(=O)c2c(CC=C(C)C)c1OC)C=CC(C)(C)O4
200	COc1c(OCCCCCN2CCCC2)cc2oc3cc4c(c(O)c3c(=O)c2c1CC=C(C)C)C=CC(C)(C)O4
> 10000	CCOC(=O)CCCCCCOc1cc2oc3cc4c(c(O)c3c(=O)c2c(CC=C(C)C)c1OC)C=CC(C)(C)O4
420	COc1c(O)cc2oc3cc4c(c(O)c3c(=O)c2c1CC=C(C)C)C=CC(C)(C)O4 [MANGOSTANIN]
> 1000	COc1c(OCCCN2CCCC2)cc2oc3cc4c(c(O)c3c(=O)c2c1CC=C(C)C)C=CC(C)(C)O4
480	COc1c(OCC(=O)O)cc2oc3cc4c(c(O)c3c(=O)c2c1CC=C(C)C)C=CC(C)(C)O4
> 10000	COc1c(OCCCCBr)cc2oc3cc4c(c(O)c3c(=O)c2c1CC=C(C)C)C=CC(C)(C)O4
> 10000	CCOC(=O)COc1cc2oc3cc4c(c(O)c3c(=O)c2c(CC=C(C)C)c1OC)C=CC(C)(C)O4
> 10000	COc1c(OCCCCCCBr)cc2oc3cc4c(c(O)c3c(=O)c2c1CC=C(C)C)C=CC(C)(C)O4
44	COc1c(OCCCC(=O)O)cc2oc3cc4c(c(O)c3c(=O)c2c1CC=C(C)C)C=CC(C)(C)O4
76	COc1c(OCCCCCC(=O)O)cc2oc3cc4c(c(O)c3c(=O)c2c1CC=C(C)C)C=CC(C)(C)O4
622	COc1c(OCCCCN2CCCC2)cc2oc3cc4c(c(O)c3c(=O)c2c1CC=C(C)C)C=CC(C)(C)O4
99	COc1c(OCCCCCCN2CCCC2)cc2oc3cc4c(c(O)c3c(=O)c2c1CC=C(C)C)C=CC(C)(C)O4
58	COc1c(OCCCCCCCCC(=O)O)cc2oc3cc4c(c(O)c3c(=O)c2c1CC=C(C)C)C=CC(C)(C)O4

Test system: Mus musculus
Assay: Anti-VaD activity against UCCAO-induced spatial memory deficient C57BL/6J mouse model assessed as improvement in spatial learning and memory by measuring increase in frequency of platform area crossings at 0.7 mg/kg, po administered for 21 days by Morris water maze test
Type: functional, organism-based
Settings: not given

SMILES	Activity
COc1cc2c(cc1OC)C(=O)C(CC1CCN(Cc3ccccc3)CC1)C2 (stereo not given)	Active

Test system: not listed separately
Assay: Toxicity in Beagle dog assessed as animals exhibiting emesis at 1 mg/kg, po observed for 180 mins
Type: organism-based, Canis lupus familiaris
Settings: in vivo, 3 h

SMILES	Activity [%]
COc1ccc(C2CNC(=O)C2)cc1OC1CCCC1 (stereo not given) [ROLIPRAM]	100

Test system: Mus musculus
Assay: Anti-VaD activity against UCCAO-induced spatial memory deficient C57BL/6J mouse model assessed as improvement in spatial learning and memory by measuring increase in residence time on the platform at 0.7 mg/kg, po administered for 21 days by Morris water maze test
Type: functional, organism-based
Settings: not given

SMILES	Activity
COc1cc2c(cc1OC)C(=O)C(CC1CCN(Cc3ccccc3)CC1)C2 (stereo not given)	Active

Test system: Mus musculus
Assay: Anti-VaD activity against UCCAO-induced spatial memory deficient C57BL/6J mouse model assessed as improvement in spatial learning and memory by measuring reduction in escape latency at 0.7 mg/kg, po administered for 21 days by Morris water maze test
Type: functional, organism-based
Settings: not given

SMILES	Activity
COc1cc2c(cc1OC)C(=O)C(CC1CCN(Cc3ccccc3)CC1)C2 (stereo not given)	Active

Target: Phosphodiesterase isozyme 4 (Homo sapiens, UniProt Q86V67)
Sequence (Q86V67 whole entry): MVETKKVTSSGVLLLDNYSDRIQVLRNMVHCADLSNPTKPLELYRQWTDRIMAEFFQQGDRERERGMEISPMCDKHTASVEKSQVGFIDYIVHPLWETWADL
Assay: Inhibition of PDE4 (unknown origin)
Settings: not given

SMILES	IC50 [nM]
C=C(C)[C@@H]1CC[C@]2(C(=O)O)CC[C@]3(C)[C@H](CC[C@@H]4[C@@]5(C)CC[C@H](O)C(C)(C)[C@@H]5CC[C@]43C)[C@@H]12 [BETULINIC ACID]	125000

— ChEMBL document CHEMBL4402573, “Discovery and Optimization of α-Mangostin Derivatives as Novel PDE4 Inhibitors for the Treatment of Vascular Dementia” (J Med Chem, 2020)
